Remaining binding data for 2 molecules are collected here from PMC9856672, “SGC-CAMKK2-1: A Chemical Probe for CAMKK2” (Cells, 2023).

Experiment [1] has as its target T1, MST1 (Homo sapiens, UniProt Q13043).
T1 construct: purchased Eurofins DiscoverX KINOMEscan
Description: KINOMEscan 1 μM, MST1. Particulars: 1000 nM; Entrez STK4; read-out: Percent Control. The format is binding. From the text:
(§1) Supplement cells-12-00287-s001.zip/File S2. KinomeScan data for the CAMKK2 probe and negative control.xlsx, sheet "SGC-CAMKK2-1" | column: Percent Control

The target in experiment [2] is T2, NEK2 (Homo sapiens, UniProt P51955).
T2 construct: purchased Eurofins DiscoverX KINOMEscan
Description: KINOMEscan 1 μM, NEK2. The format is binding. Particulars: 1000 nM; Entrez NEK2; read-out: Percent Control.
Excerpt: as §1

Experiment [3] addresses T3, FLT3 (Homo sapiens, UniProt P36888).
T3 construct: purchased Eurofins DiscoverX KINOMEscan
Description: KINOMEscan 1 μM, FLT3. The format is binding. Particulars: 1000 nM; Entrez FLT3; read-out: Percent Control.
Excerpt: as §1

For experiment [4], the target named is T4, PIP5K1C (Homo sapiens, UniProt O60331).
T4 construct: purchased Eurofins DiscoverX KINOMEscan
Nature of the experiment: KINOMEscan 1 μM, PIP5K1C. The format is binding. Particulars: 1000 nM; Entrez PIP5K1C; read-out: Percent Control.
Excerpt: as §1

In experiment [5] the target is T5, MLK2 (Homo sapiens, UniProt Q02779).
T5 construct: purchased Eurofins DiscoverX KINOMEscan
Description: KINOMEscan 1 μM, MLK2. The format is binding. Particulars: 1000 nM; Entrez MAP3K10; read-out: Percent Control.
Excerpt: as §1

Experiment [6] addresses T6, MST1R (Homo sapiens, UniProt Q04912).
T6 construct: purchased Eurofins DiscoverX KINOMEscan
Description: KINOMEscan 1 μM, MST1R. The class given is binding. The note with it: 1000 nM; Entrez MST1R; read-out: Percent Control.
Excerpt: as §1

Experiment [7] concerns the target T7, MKK7 (Homo sapiens, UniProt O14733).
T7 construct: purchased Eurofins DiscoverX KINOMEscan
Nature of the experiment: KINOMEscan 1 μM, MKK7. The class given is binding. Particulars: 1000 nM; Entrez MAP2K7; read-out: Percent Control.
Excerpt: as §1

Experiment [8] deals with T8, EGFR(L861Q) (Homo sapiens, UniProt P00533, L861Q).
T8 construct: purchased Eurofins DiscoverX KINOMEscan
Nature of the experiment: KINOMEscan 1 μM, EGFR(L861Q). Particulars: 1000 nM; Entrez EGFR; read-out: Percent Control. The class given is binding.
Excerpt: as §1

Experiment [9] addresses T9, ACVR2B (Homo sapiens, UniProt Q13705).
T9 construct: purchased Eurofins DiscoverX KINOMEscan
Description: KINOMEscan 1 μM, ACVR2B. The format is binding. The note with it: 1000 nM; Entrez ACVR2B; read-out: Percent Control.
Excerpt: as §1

Experiment [10] deals with T10, ZAP70 (Homo sapiens, UniProt P43403).
T10 construct: purchased Eurofins DiscoverX KINOMEscan
Description: DiscoverX KINOMEscan binding assay at 1 μM, ZAP70. The note with it: Compound Concentration 1000 nM, read-out: Percent Control.
Excerpt: as §1

Experiment [11] concerns the target T11, PIK3CA(E545A) (Homo sapiens, UniProt P42336, E545A).
T11 construct: purchased Eurofins DiscoverX KINOMEscan
Description: DiscoverX KINOMEscan binding assay at 1 μM, PIK3CA(E545A). Particulars: Compound Concentration 1000 nM, read-out: Percent Control.
Excerpt: as §1

Experiment [12] addresses T12, TRKB (Homo sapiens, UniProt Q16620).
T12 construct: purchased Eurofins DiscoverX KINOMEscan
Description: DiscoverX KINOMEscan binding assay at 1 μM, TRKB. The note with it: TRKB (NTRK2); Compound Concentration 1000 nM; read-out: Percent Control.
Excerpt: as §1

In experiment [13] the target is T13, CSNK1A1L (Homo sapiens, UniProt Q8N752).
T13 construct: purchased Eurofins DiscoverX KINOMEscan
Nature of the experiment: KINOMEscan 1 μM, CSNK1A1L. The class given is binding. The note with it: 1000 nM; Entrez CSNK1A1L; read-out: Percent Control.
Excerpt: as §1

Experiment [14] has as its target T14, INSR (Homo sapiens, UniProt P06213).
T14 construct: purchased Eurofins DiscoverX KINOMEscan
Nature of the experiment: KINOMEscan 1 μM, INSR. The note with it: 1000 nM; Entrez INSR; read-out: Percent Control. The format is binding.
Excerpt: as §1

The target in experiment [15] is T15, CAMK2G (Homo sapiens, UniProt Q13555).
T15 construct: purchased Eurofins DiscoverX KINOMEscan
Description: KINOMEscan at 1 μM, CAMK2G. The class given is binding. The note with it: 1000 nM, read-out: Percent Control. From the text:
(§2) Supplement cells-12-00287-s001.zip/File S2. KinomeScan data for the CAMKK2 probe and negative control.xlsx, sheet "SGC-CAMKK2-1N" | column: Percent Control

Experiment [16] concerns the target T16, WNK3 (Homo sapiens, UniProt Q9BYP7).
T16 construct: purchased Eurofins DiscoverX KINOMEscan
Nature of the experiment: KINOMEscan at 1 μM, WNK3. The format is binding. The note with it: 1000 nM, read-out: Percent Control.
Excerpt: as §2

Experiment [17] deals with T1, MST1. Description: KINOMEscan binding assay at 1 μM, MST1. Particulars: Compound Concentration 1000 nM; read-out: Percent Control.
Excerpt: as §2

The target in experiment [18] is T17, GSK3A (Homo sapiens, UniProt P49840).
T17 construct: purchased Eurofins DiscoverX KINOMEscan
Description: KINOMEscan binding assay at 1 μM, GSK3A. The note with it: Compound Concentration 1000 nM; read-out: Percent Control.
Excerpt: as §2

Experiment [19] addresses T18, ALK(L1196M) (Homo sapiens, UniProt Q9UM73, L1196M).
T18 construct: purchased Eurofins DiscoverX KINOMEscan
Nature of the experiment: KINOMEscan at 1 μM, ALK(L1196M). The class given is binding. The note with it: 1000 nM, read-out: Percent Control.
Excerpt: as §2

For experiment [20], the target named is T19, IKK-alpha (Homo sapiens, UniProt O15111).
T19 construct: purchased Eurofins DiscoverX KINOMEscan
Description: KINOMEscan at 1 μM, IKK-alpha. The class given is binding. Particulars: 1000 nM, read-out: Percent Control.
Excerpt: as §2

Experiment [21] has as its target T20, ABL1(T315I)-nonphosphorylated (Homo sapiens, UniProt P00519, T315I).
T20 construct: purchased Eurofins DiscoverX KINOMEscan
Description: KINOMEscan at 1 μM, ABL1(T315I)-nonphosphorylated. The format is binding. The note with it: 1000 nM, read-out: Percent Control.
Excerpt: as §2

The target of experiment [22] is T21, GRK1 (Homo sapiens, UniProt Q15835).
T21 construct: purchased Eurofins DiscoverX KINOMEscan
Description: KINOMEscan at 1 μM, GRK1. The class given is binding. The note with it: 1000 nM, read-out: Percent Control.
Excerpt: as §2

Experiment [23] addresses T22, TESK1 (Homo sapiens, UniProt Q15569).
T22 construct: purchased Eurofins DiscoverX KINOMEscan
Description: KINOMEscan at 1 μM, TESK1. Particulars: 1000 nM, read-out: Percent Control. The class given is binding.
Excerpt: as §2

Experiment [24] deals with T23, ACVRL1 (Homo sapiens, UniProt P37023).
T23 construct: purchased Eurofins DiscoverX KINOMEscan
Nature of the experiment: KINOMEscan at 1 μM, ACVRL1. The format is binding. Particulars: 1000 nM, read-out: Percent Control.
Excerpt: as §2

Experiment [25] has as its target T24, PIK3CG (Homo sapiens, UniProt P48736).
T24 construct: purchased Eurofins DiscoverX KINOMEscan
Nature of the experiment: KINOMEscan at 1 μM, PIK3CG. The note with it: 1000 nM, read-out: Percent Control. The format is binding.
Excerpt: as §2

For experiment [26], the target named is T25, AXL (Homo sapiens, UniProt P30530).
T25 construct: purchased Eurofins DiscoverX KINOMEscan
Nature of the experiment: KINOMEscan at 1 μM, AXL. The format is binding. The note with it: 1000 nM, read-out: Percent Control.
Excerpt: as §2

The target of experiment [27] is T26, HCK (Homo sapiens, UniProt P08631).
T26 construct: purchased Eurofins DiscoverX KINOMEscan
Nature of the experiment: KINOMEscan binding assay at 1 μM, HCK. The note with it: Compound Concentration 1000 nM; read-out: Percent Control.
Excerpt: as §2

The target of experiment [28] is T27, FAK (Homo sapiens, UniProt Q05397).
T27 construct: purchased Eurofins DiscoverX KINOMEscan
Description: KINOMEscan at 1 μM, FAK. The format is binding. Particulars: 1000 nM, read-out: Percent Control.
Excerpt: as §2

Experiment [29] concerns the target T28, RIPK2 (Homo sapiens, UniProt O43353).
T28 construct: purchased Eurofins DiscoverX KINOMEscan
Nature of the experiment: KINOMEscan at 1 μM, RIPK2. The format is binding. Particulars: 1000 nM, read-out: Percent Control.
Excerpt: as §2

Experiment [30] deals with T29, CSNK1G2 (Homo sapiens, UniProt P78368).
T29 construct: purchased Eurofins DiscoverX KINOMEscan
Description: KINOMEscan at 1 μM, CSNK1G2. The format is binding. The note with it: 1000 nM, read-out: Percent Control.
Excerpt: as §2

In experiment [31] the target is T30, BRSK1 (Homo sapiens, UniProt Q8TDC3).
T30 construct: purchased Eurofins DiscoverX KINOMEscan
Description: KINOMEscan at 1 μM, BRSK1. The format is binding. Particulars: 1000 nM, read-out: Percent Control.
Excerpt: as §2

Experiment [32] concerns the target T31, PAK3 (Homo sapiens, UniProt O75914).
T31 construct: purchased Eurofins DiscoverX KINOMEscan
Description: KINOMEscan binding assay at 1 μM, PAK3. Particulars: Compound Concentration 1000 nM; read-out: Percent Control.
Excerpt: as §2

Experiment [33] deals with T32, FLT3(K663Q) (Homo sapiens, UniProt P36888, K663Q).
T32 construct: purchased Eurofins DiscoverX KINOMEscan
Description: KINOMEscan binding assay at 1 μM, FLT3(K663Q). Particulars: Compound Concentration 1000 nM; read-out: Percent Control.
Excerpt: as §2

For experiment [34], the target named is T33, BUB1 (Homo sapiens, UniProt O43683).
T33 construct: purchased Eurofins DiscoverX KINOMEscan
Nature of the experiment: KINOMEscan at 1 μM, BUB1. The format is binding. The note with it: 1000 nM, read-out: Percent Control.
Excerpt: as §2

Experiment [35] has as its target T34, MYLK2 (Homo sapiens, UniProt Q9H1R3).
T34 construct: purchased Eurofins DiscoverX KINOMEscan
Nature of the experiment: KINOMEscan at 1 μM, MYLK2. The format is binding. Particulars: 1000 nM, read-out: Percent Control.
Excerpt: as §2

T1 sequence (Q13043 whole entry): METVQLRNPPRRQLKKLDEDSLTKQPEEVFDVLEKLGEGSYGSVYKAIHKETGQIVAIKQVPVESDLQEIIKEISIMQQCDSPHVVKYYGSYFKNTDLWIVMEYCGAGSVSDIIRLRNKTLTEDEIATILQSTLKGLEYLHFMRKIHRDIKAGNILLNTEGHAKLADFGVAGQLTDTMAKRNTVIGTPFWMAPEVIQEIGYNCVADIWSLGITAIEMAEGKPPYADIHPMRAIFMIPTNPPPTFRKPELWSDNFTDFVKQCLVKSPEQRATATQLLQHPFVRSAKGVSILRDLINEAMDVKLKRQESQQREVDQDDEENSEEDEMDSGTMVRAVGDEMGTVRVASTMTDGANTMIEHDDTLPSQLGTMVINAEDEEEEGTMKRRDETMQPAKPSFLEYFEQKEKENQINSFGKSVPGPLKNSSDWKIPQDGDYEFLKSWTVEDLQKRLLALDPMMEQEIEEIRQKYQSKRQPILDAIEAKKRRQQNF
T7 sequence (O14733 whole entry): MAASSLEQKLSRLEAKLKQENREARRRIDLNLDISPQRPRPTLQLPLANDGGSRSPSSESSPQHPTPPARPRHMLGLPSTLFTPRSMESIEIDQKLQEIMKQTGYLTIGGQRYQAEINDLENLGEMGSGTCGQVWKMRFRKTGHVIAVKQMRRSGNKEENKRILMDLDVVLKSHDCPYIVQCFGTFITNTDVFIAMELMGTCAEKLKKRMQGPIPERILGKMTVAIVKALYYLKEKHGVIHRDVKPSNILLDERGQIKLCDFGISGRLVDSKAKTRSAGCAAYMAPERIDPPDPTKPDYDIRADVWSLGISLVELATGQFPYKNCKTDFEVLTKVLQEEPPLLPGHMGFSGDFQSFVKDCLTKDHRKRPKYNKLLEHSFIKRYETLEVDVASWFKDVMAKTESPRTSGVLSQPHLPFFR
T14 sequence (P06213 28-1382): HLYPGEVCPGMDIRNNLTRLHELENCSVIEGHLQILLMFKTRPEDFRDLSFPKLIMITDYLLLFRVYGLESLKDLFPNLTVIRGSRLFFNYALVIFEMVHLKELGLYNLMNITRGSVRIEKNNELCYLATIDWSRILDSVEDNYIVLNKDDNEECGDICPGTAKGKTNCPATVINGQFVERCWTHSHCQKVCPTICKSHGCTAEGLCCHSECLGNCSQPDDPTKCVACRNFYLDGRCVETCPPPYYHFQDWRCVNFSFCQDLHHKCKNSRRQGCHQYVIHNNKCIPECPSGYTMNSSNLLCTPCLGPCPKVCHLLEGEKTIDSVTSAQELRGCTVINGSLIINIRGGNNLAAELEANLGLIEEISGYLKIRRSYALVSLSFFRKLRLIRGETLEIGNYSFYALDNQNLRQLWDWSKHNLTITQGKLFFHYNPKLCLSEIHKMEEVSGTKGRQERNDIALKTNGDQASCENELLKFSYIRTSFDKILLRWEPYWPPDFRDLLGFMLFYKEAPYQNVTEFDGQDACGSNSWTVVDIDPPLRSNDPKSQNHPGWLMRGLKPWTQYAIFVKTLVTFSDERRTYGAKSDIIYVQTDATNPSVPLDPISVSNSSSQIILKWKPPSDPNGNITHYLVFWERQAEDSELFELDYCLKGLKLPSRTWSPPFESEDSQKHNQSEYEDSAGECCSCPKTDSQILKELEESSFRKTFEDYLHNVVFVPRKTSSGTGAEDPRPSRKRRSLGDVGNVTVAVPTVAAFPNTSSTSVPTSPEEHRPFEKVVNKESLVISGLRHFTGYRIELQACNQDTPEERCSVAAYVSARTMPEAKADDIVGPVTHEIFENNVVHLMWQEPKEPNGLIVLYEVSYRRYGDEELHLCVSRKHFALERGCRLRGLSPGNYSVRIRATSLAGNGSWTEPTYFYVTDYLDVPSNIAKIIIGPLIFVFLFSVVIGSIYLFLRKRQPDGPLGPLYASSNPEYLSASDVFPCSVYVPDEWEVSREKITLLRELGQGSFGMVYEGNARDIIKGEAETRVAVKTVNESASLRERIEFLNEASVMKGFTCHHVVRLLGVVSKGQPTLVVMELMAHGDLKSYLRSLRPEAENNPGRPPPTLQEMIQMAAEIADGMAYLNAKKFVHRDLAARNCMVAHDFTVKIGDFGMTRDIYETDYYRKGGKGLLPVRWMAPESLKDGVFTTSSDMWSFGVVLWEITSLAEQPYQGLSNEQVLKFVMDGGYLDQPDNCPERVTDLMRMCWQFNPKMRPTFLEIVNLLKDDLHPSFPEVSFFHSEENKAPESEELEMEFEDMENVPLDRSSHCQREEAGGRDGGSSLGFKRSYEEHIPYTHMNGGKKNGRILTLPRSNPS
T11 sequence (P42336 whole entry E545A): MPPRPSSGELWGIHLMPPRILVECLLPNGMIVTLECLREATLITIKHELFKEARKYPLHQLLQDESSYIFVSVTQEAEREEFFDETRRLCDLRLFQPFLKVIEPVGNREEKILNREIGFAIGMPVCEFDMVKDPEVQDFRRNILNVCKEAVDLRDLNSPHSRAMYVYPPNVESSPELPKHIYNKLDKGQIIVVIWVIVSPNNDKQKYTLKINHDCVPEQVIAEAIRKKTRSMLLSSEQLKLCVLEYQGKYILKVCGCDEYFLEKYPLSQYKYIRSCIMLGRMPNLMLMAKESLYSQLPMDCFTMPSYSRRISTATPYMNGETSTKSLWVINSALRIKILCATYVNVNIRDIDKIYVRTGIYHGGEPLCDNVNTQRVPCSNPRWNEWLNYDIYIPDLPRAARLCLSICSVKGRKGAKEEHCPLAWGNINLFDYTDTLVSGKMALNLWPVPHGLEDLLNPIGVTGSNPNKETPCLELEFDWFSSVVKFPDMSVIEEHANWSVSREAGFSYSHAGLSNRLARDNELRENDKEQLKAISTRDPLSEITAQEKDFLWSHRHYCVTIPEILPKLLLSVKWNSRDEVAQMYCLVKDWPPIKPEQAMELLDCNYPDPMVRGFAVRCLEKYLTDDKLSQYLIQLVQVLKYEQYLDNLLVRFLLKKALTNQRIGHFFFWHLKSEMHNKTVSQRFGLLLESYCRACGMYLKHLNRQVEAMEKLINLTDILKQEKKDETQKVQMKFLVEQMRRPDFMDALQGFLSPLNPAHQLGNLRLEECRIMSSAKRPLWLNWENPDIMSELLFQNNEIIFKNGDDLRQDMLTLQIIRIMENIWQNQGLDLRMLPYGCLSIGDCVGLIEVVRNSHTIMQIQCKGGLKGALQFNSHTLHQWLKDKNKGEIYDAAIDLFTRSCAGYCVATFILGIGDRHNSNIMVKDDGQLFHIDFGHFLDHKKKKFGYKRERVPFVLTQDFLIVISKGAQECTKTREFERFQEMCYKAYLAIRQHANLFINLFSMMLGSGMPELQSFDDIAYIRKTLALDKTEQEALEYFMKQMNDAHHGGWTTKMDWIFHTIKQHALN
T27 sequence (Q05397 whole entry): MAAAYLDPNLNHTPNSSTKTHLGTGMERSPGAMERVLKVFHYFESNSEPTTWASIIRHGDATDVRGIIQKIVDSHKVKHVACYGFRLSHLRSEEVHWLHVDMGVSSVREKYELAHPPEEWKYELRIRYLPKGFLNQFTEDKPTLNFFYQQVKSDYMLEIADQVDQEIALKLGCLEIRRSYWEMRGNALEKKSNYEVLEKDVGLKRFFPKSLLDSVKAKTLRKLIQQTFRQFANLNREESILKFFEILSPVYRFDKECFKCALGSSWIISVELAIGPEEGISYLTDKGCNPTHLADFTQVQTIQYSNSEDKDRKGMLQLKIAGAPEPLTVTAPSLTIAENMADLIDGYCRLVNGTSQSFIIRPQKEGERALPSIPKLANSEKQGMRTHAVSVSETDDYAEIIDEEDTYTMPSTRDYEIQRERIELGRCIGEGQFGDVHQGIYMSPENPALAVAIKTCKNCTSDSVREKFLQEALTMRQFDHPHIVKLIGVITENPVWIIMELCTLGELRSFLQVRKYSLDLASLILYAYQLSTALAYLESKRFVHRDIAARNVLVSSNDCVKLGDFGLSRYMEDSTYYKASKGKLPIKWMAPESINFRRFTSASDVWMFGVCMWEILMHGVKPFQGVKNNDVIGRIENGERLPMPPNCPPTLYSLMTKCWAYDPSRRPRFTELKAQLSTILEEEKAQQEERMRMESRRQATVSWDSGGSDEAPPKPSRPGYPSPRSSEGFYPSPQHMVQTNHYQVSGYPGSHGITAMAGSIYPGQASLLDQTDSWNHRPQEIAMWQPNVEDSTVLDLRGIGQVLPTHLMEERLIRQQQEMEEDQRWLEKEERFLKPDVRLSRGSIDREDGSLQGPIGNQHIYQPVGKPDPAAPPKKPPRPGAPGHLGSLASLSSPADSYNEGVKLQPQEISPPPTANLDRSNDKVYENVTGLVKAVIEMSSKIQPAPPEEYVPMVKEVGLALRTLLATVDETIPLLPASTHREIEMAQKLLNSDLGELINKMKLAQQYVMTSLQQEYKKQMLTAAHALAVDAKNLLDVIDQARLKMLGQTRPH
T34 sequence (Q9H1R3 whole entry): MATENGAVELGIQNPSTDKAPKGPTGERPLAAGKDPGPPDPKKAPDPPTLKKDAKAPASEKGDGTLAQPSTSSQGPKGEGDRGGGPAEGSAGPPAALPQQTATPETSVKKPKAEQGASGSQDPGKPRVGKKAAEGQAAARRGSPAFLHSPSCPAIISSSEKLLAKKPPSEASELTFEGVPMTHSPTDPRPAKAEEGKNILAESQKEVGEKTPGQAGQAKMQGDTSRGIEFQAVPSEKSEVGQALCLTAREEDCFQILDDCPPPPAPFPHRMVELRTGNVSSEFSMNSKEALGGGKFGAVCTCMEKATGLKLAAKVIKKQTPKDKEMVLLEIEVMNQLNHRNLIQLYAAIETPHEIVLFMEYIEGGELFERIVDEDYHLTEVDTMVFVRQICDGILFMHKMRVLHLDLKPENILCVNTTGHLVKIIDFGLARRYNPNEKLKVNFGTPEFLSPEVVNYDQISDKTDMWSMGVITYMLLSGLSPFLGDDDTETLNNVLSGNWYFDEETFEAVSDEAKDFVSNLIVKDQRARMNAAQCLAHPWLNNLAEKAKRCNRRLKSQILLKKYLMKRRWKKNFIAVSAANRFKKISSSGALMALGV

On to `Cc1cccc(-c2cnc3occ(-c4ccc(C(=O)O)c(C5CCCC5)c4)c3c2)c1` [SGC-CAMKK2-1 (YL-36)], for which the remaining binding at 1 µM in [1] was found to be 100%; in experiment [2], 100%; in [3], 80%; in experiment [4] it was 99%; in experiment [5] it was 100%; in experiment [6] it was 86%. Further, the remaining binding at 1 µM in experiment [7] worked out at 100%; in experiment [8], 47%; in [9], 43%; in [10], 100%; in experiment [11], 100%; in experiment [12], 100%. For the same molecule, the remaining binding at 1 µM in [13] worked out at 88%; in experiment [14], 77%.
As for `O=C(O)c1ccc(-c2coc3ncc(-c4ccccc4)cc23)cc1Cl` [SGC-CAMKK2-1N (UNC-YL-83)], the remaining binding at 1 µM in [15] was 85%; in experiment [16] it was 95%; in experiment [17], 100%; in experiment [18], 100%; in [19], 92%; in experiment [20], 75%. Moreover, the remaining binding at 1 µM in [21] turned out to be 45%; in experiment [22], 92%; in [23], 59%; in [24] it was 100%; in [25], 66%; in [26], 94%. The remaining binding at 1 µM in experiment [27] stood at 100%; in experiment [28] it was 96%; in experiment [29] it was 99%; in experiment [30], 100%; in experiment [31], 92%; in experiment [32], 100%. Moreover, the remaining binding at 1 µM in [33] is 100%; in [34], 79%; in [35], 82%.
